From US12187705B2, “Heteroaryl-triazole and heteroaryl-tetrazole compounds as pesticides” (Bayer Aktiengesellschaft, priority 2018, dated 2025)

What was measured:
Type in all cases: in vivo
Ctenocephalides felis [1] = assay: Ctenocephalides felis oral test; settings: Ctenocephalides felis, in Bos taurus, po, 48 h
Procedure, shortened: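 About 20 adult unfed fleas fed through parafilm on cattle blood containing compound (DMSO concentrate diluted in blood); blood held at 37° C., fleas at room temperature. Mortality in % scored after 2 days (100% = all killed).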

Diabrotica balteata = Diabrotica balteata spray test; settings: Diabrotica balteata, 168 h; 160 μg/well, wheat seeds, after 7 days; read-out: efficacy (seedlings grown)
Procedure, shortened: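 Efficacy (%) read 7 days after infesting treated seedlings with 10-20 banded cucumber beetle larvae, 100% meaning growth as in uninfected untreated control and 0% no growth. Test solutions in water containing 1000 ppm emulsifier were sprayed onto wheat seeds germinated for 1 day on agar.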

Myzus persicae [2] = assay: Myzus persicae oral test; settings: 120 h
Procedure, shortened: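 Feeding test: compound diluted in water was combined with IPL41 insect medium (33%+15% sugar) under a parafilm seal. A mixed population of green peach aphids fed through the membrane. Mortality (%) was scored after 5 days.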

Phaedon cochleariae = Phaedon cochleariae spray test; settings: foliar, 168 h, Chinese cabbage leaf disks, after 7 days
Protocol: Phaedon cochleariae—Spray Test
(§1) To produce a suitable preparation of active compound, 1 part by weight of active compound is mixed with the stated amount of solvents and is diluted with water, containing an emulsifier concentration of 1000 ppm, to the desired concentration. Further test concentrations are prepared by dilution with emulsifier containing water.
Chinese cabbage (Brassica pekinensis) leaf disks are sprayed with a preparation of the active ingredient of the desired concentration. Once dry, the leaf disks are infested with mustard beetle larvae (Phaedon cochleariae).
After 7 days mortality in % is determined. 100% means all beetle larvae have been killed and 0% means none of the beetle larvae have been killed.

Spodoptera frugiperda = Spodoptera frugiperda spray test; settings: in Zea mays, 168 h
Procedure, shortened: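 Leaf-spray assay on maize: sections treated with active ingredient at the desired concentration in emulsifier-containing water (1000 ppm) and, once dry, exposed to armyworm caterpillars. Kill rate is expressed in percent after seven days.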

Nezara viridula = Nezara viridula spray test; settings: in Hordeum vulgare, 96 h
Procedure, shortened: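 Barley plants infested with stink bug larvae were sprayed with compound diluted in water containing 1000 ppm emulsifier. Mortality (%) was scored after 4 days, 100% meaning all bugs killed.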

Ctenocephalides felis [3] = assay: Ctenocephalides felis in-vitro contact test adult cat flea; settings: Ctenocephalides felis; 5 μg/cm^2 (=500 g/ha), after 48 hours; read-out: efficacy (fleas dead or moribund)
Procedure, shortened: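 Efficacy (% dead or moribund) was scored 48 h after adult Ctenocephalides felis were confined in tubes coated with the acetone-applied compound (900 ppm, 5 μg/cm^2). Moribund status was judged by failure to escape a 45-50° C heating plate within 5 minutes.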

Boophilus microplus = Boophilus microplus injection test; settings: Rhipicephalus microplus, 168 h, 20 μg/animal, egg deposition after 7 days, read-out: efficacy (infertile eggs)
Procedure, shortened: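 Efficacy expresses the share of infertile eggs (100% all infertile, 0% all fertile), judged at 7 days or at hatching around day 42. Five adult engorged females were each injected abdominally with 1 μl of DMSO compound solution and incubated in a climate chamber.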

Nilaparvata lugens = Nilaparvata lugens spray test; settings: Nilaparvata lugens, in Oryza sativa, 96 h
Protocol: Nilaparvata lugens—Spray Test
as §1
Rice plants (Oryza sativa) are sprayed with a preparation of the active ingredient of the desired concentration and the plants are infested with the brown planthopper (Nilaparvata lugens).
After 4 days mortality in % is determined. 100% means all planthoppers have been killed and 0% means none of the planthoppers have been killed.

[4] = test system: Aedes aegypti strain MONHEIM; assay: Aedes aegypti test (AEDSAE surface treatment & contact assay); settings: 24 hours after contact, read-out: efficacy (mortality); for mortality at 20 mg/m2: surface concentration 20 mg/m^2, 30 minutes exposure; for mortality at 4 mg/m2: surface concentration 4 mg/m^2, 30 minutes exposure
Procedure, shortened: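 Compound dissolved in acetone (2 mg/ml) with 2000 ppm rapeseed oil methyl ester and dried onto a glazed tile. Adult mosquitoes held on the treated surface for 30 minutes exposure. Percent mortality scored 24 hours after contact.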

[5] = test system: Anopheles funestus strain FUMOZ-R; assay: Anopheles funestus test (ANPHFU surface treatment & contact assay); settings: 24 hours after contact, read-out: efficacy (mortality); for mortality at 4 mg/m2: surface concentration 4 mg/m^2, 30 minutes exposure; for mortality at 20 mg/m2: surface concentration 20 mg/m^2, 30 minutes exposure
Protocol: Anopheles funestus Test (ANPHFU Surface Treatment & Contact Assay)
(§2) Solvent: Aceton+2000 ppm rapeseed oil methyl ester (RME)
(§3) In order to produce a sufficient, active ingredient containing solution it is necessary to solve the test-compound in the solvent-mix (Acetone at 2 mg/ml/RME 2000 ppm). This solution is pipetted onto a glazed tile and after evaporation of the Acetone, adult mosquitoes of the species Anopheles funestus strain FUMOZ-R (Hunt et al., Med Vet Entomol. 2005 September; 19(3):271-5) are placed onto the dried surface. The exposure time is 30 minutes.
(§4) Mortality in percent (%) is determined 24 hours after contact to the treated surface. 100% mortality means that all test-insects are dead, whereas 0% means that not a single insect died.

Myzus persicae [6] = assay: Myzus persicae spray test; settings: in Brassica rapa, foliar, 120 h
Protocol: Myzus persicae—Spray Test
as §1
Chinese cabbage (Brassica pekinensis) leaf disks infected with all instars of the green peach aphid (Myzus persicae), are sprayed with a preparation of the active ingredient of the desired concentration.
After 5 days mortality in % is determined. 100% means all aphids have been killed and 0% means none of the aphids have been killed.

[7] = test system: Culex quinquefasciatus strain P00; assay: Culex quinquefasciatus test (CULXFA surface treatment & contact assay); settings: 24 hours after contact, read-out: efficacy (mortality); for mortality at 4 mg/m2: surface concentration 4 mg/m^2, 30 minutes exposure; for mortality at 20 mg/m2: surface concentration 20 mg/m^2, 30 minutes exposure
Procedure, shortened: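 Compound dissolved in acetone (2 mg/ml) with 2000 ppm rapeseed oil methyl ester, applied to glazed tile and dried. Adult strain P00 mosquitoes exposed to the surface for 30 minutes. Percent mortality scored 24 hours after contact.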

[8] = test system: Musca domestica strain WHO-N; assay: Musca domestica test (MUSCDO surface treatment & contact assay); settings: 24 hours after contact, read-out: efficacy (mortality); for mortality at 20 mg/m2: surface concentration 20 mg/m^2, 30 minutes exposure; for mortality at 4 mg/m2: surface concentration 4 mg/m^2, 30 minutes exposure
Protocol: Musca domestica Test (MUSCDO Surface Treatment & Contact Assay)
as §2
as §3, with “flies” for “mosquitoes”, “Musca domestica” for “Anopheles funestus”, “WHO-N” for “FUMOZ-R (Hunt et al., Med Vet Entomol. 2005 September; 19(3):271-5)”
as §4

Row | Structure (SMILES) | mortality at 100 ppm (Ctenocephalides felis [1]) | pest or weed control at 160 µg/disc, 160 µg/well (Diabrotica balteata) | mortality at 4 ppm (Myzus persicae [2]) | mortality at 20 ppm (Myzus persicae [2]) | mortality at 500 g/ha (Phaedon cochleariae) | mortality at 500 g/ha (Spodoptera frugiperda) | mortality at 500 g/ha (Nezara viridula) | pest or weed control at 5 µg/cm2, 5 µg/cm2 (Ctenocephalides felis [3]) | pest or weed control at 0.02 mg (Boophilus microplus) | mortality at 500 g/ha (Nilaparvata lugens) | mortality at 20 mg/m2 [4] | mortality at 4 mg/m2 [5] | mortality at 20 mg/m2 [5] | mortality at 500 g/ha (Myzus persicae [6]) | mortality at 4 mg/m2 [4] | mortality at 4 mg/m2 [7] | mortality at 20 mg/m2 [7] | mortality at 20 mg/m2 [8] | mortality at 4 mg/m2 [8]
1 | CC(c1ncnn1-c1ncccn1)N(CC1CC1)C(=O)c1cc(Cl)cc(Cl)c1Cl (stereo not shown) [Example I-009] | 100% | 100% | 100% | 100% | 100% | 100% |  |  |  |  |  |  |  |  |  |  |  |  | 
2 | CC(c1ncnn1-c1ncccn1)N(CC1CC1)C(=O)c1cc(-c2ccccc2)cc(C(F)(F)F)c1 (stereo not shown) [Example I-010] | 100% |  |  |  | 100% |  |  |  |  |  |  |  |  |  |  |  |  |  | 
3 | CC(c1ncnn1-c1ncccn1)N(CC1CC1)C(=O)c1cc(-c2ccc(F)cc2)cc(C(F)(F)F)c1 (stereo not shown) [Example I-012] | 100% | 100% |  | 100% | 100% | 100% |  |  |  |  |  |  |  |  |  |  |  |  | 
4 | CC(c1ncnn1-c1ncccn1)N(CC1CC1)C(=O)c1cccc(Cl)c1Cl (stereo not shown) [Example I-016] |  | 100% |  |  | 100% |  | 100% |  |  |  |  |  |  |  |  |  |  |  | 
5 | CC(c1ncnn1-c1ncccn1)N(CC1CC1)C(=O)c1cc(Cl)c(Cl)s1 (stereo not shown) [Example I-024] | 100% | 100% | 100% | 100% | 100% |  |  | 100% | 100% | 100% | 90 to 100% | 85 to 100% | 85 to 100% |  |  |  |  |  | 
6 | CC(c1ncnn1-c1ncccn1)N(CC1CC1)C(=O)c1c(Cl)c(C(F)(F)F)nn1C (stereo not shown) [Example I-026] |  | 100% |  |  | 100% |  |  |  |  |  |  |  |  |  |  |  |  |  | 
7 | CC(c1ncnn1-c1ncccn1)N(CC1CC1)C(=O)c1cc(C2CC2)on1 (stereo not shown) [Example I-028] | 100% | 100% |  |  | 100% |  |  |  |  |  |  |  |  |  |  |  |  |  | 
8 | C[C@@H](NC(=O)c1cc(Cl)cc(S(=O)(=O)c2ccc(F)cc2)c1)c1ncnn1-c1ncccn1 [Example I-043] | 100% | 100% | 100% |  |  | 100% | 100% | 90% | 100% | 100% | 90 to 100% |  |  | 90% | 80 to 100% | 80 to 100% | 80 to 100% | 80 to 100% | 
9 | C[C@@H](NC(=O)c1cc(Cl)cc(S(=O)(=O)C(F)(F)F)c1)c1ncnn1-c1ccc(C#N)cn1 [Example I-067] | 100% | 100% | 100% |  |  | 100% | 100% | 90% | 80% |  | 90 to 100% |  |  |  | 80 to 100% | 80 to 100% | 80 to 100% | 80 to 100% | 
10 | C[C@@H](NC(=O)c1cc(Cl)cc(S(=O)(=O)C(F)(F)F)c1)c1ncnn1-c1ccccn1 [Example I-068] | 100% | 100% | 90% |  |  | 100% | 100% | 90% | 100% |  | 90 to 100% | 85 to 100% | 85 to 100% |  | 80 to 100% | 80 to 100% | 80 to 100% | 80 to 100% | 80 to 100%
11 | C[C@@H](NC(=O)c1cc(Cl)cc([S+](C)[O-])c1)c1ncnn1-c1ccc(C#N)cn1 (stereo partly shown) [Example I-070] | 100% | 100% | 100% |  |  | 100% | 100% | 100% | 100% |  | 90 to 100% | 85 to 100% | 85 to 100% | 100% | 80 to 100% | 80 to 100% | 80 to 100% | 80 to 100% | 
12 | C[C@@H](NC(=O)c1cc(Cl)cc(S(=O)(=O)C(F)(F)F)c1)c1ncnn1-c1cnccn1 [Example I-074] | 100% | 100% | 100% |  |  | 100% | 100% | 90% | 100% |  | 90 to 100% |  |  | 90% |  |  | 80 to 100% | 80 to 100% | 
13 | C[C@@H](NC(=O)c1cc(Cl)cc(S(=O)(=O)C(F)(F)F)c1)c1ncnn1-c1ncc(F)cc1F [Example I-078] |  | 100% |  |  |  | 100% | 100% |  |  |  | 90 to 100% |  | 85 to 100% |  | 80 to 100% | 80 to 100% | 80 to 100% | 80 to 100% | 
14 | C[C@@H](NC(=O)c1cc(C(F)(F)F)n(C)n1)c1ncnn1-c1ncccn1 [Example I-100] |  | 100% |  |  |  | 100% | 100% |  |  | 100% | 90 to 100% | 85 to 100% | 85 to 100% | 90% | 80 to 100% | 80 to 100% | 80 to 100% | 80 to 100% | 80 to 100%
